# Measurements from patent US10369131B2, “Ultrapure tetrahydrocannabinol-11-oic acids” (Corbus Pharmaceuticals, Inc., priority 2013, dated 2019).
# “Also recorded” adds a separate entry of the source.
# Columns and labels:
# [1] = tested on: female CD-1 mice; assay: Mouse hot plate test for antinociception; format: in vivo
# [2] = biological target: T1, hCB2 receptor (Homo sapiens, UniProt P34972); assay: biochemical
# Source text: When the CB1 or CB2 receptor is activated by an agonist, the affinity of the G protein alpha subunit increases with respect to GTP vs. GDP. As a consequence, GDP is displaced from the G protein and GTP or GTPγS binds. If a radioactive label, such as [^35S], is attached to the GTPγS molecule, then the formation of the G protein/[^35S]GTPγS complex can be directly measured using liquid scintillation spectrophotometry.
# The CB1 and CB2 receptor assays involve membrane preparations purchased from Perkin Elmer (Waltham, Mass.) isolated from a HEK-293 expression system. G-protein coupled signal transduction (GTP-γ-[35S]) assays of test compounds were conducted in an incubation mixture consisting of a test compound (250 nM-1 mM), GDP (20 μM), GTP-γ-[35S] (100 pM), and the hCB1 and hCB2 membrane preparations (0.4 pM) in a total volume of 0.4 mL of assay buffer (50 mM TRIS-HCl, pH 7.4, 1 mM EDTA, 100 mM NaCl, 5 mM MgCl2, 0.5% (w/v) BSA). Nonspecific binding was determined in the presence of 100 μM unlabeled GTP-γ-S, and basal binding was determined in the absence of drug. Duplicate samples were incubated for 1 h at 30° C., and the bound complex was filtered from the reaction mixture as described previously and counted in a liquid scintillation counter. Specific binding was calculated by subtracting nonspecific binding from total binding and dividing by the total basal binding minus nonspecific binding. Data were plotted and analyzed with GraphPad Prism (GraphPad Software, Inc., San Diego, Calif.).
# [3] = tested on: female CD-1 mice; assay: Rectal temperature (mouse hypothermia assay); conditions: oral 0.05-56 mg/kg, 90 min after administration
# Procedure: Compounds were administered at a volume of […] via oral gavage.
# Female CD-1 mice (20-25 g), obtained from Charles River (Raleigh, N.C.), were used for assessment in hot plate nociception, rectal temperature, and ring immobility assays. Separate mice were used for testing each dose of each compound in this battery of procedures. The mice had free access to food and water when in their home cages. All animals were kept in a temperature-controlled (20-22° C.) environment with a 12-hour light-dark cycle (lights on at 7 a.m.).
# Each mouse was tested in a battery of three tests, in which cannabinoid CB1 agonists produce in vivo effects in mice (Martin et al., 1991): antinociception (hot plate assay), decreased rectal temperature and ring immobility. Prior to administration of the test compound, rectal temperature and baseline latency in the hot plate test were measured in the mice. The latter procedure involved placing the mouse on a heated surface (mouse cold/hot plate analgesia apparatus; Stoelting, Wood Dale, Ill.) at a setting of 55° C. Time until the mouse lifts or licks a paw was measured, whereupon the mouse was removed from the apparatus. […] Subsequently, the mice were placed on a 5.5 cm ring attached at a height of 16 cm to a ring stand, and the amount of time the animals remained motionless during a 5 min period was recorded. In addition, the number of times the mouse fell or jumped off the ring was recorded. […]
# Rectal temperature values were expressed as the difference between control temperature (before injection) and temperature following drug administration (Δ° C.). Antinociception was expressed as the percent maximum possible effect (MPE) using a 30-s maximum test latency as follows: [(test−control)/(30−control)]×100. During assessment for catalepsy, the total amount of time (in seconds) that the mouse remained motionless on the ring apparatus (except for breathing and whisker movement) was measured and was used as an indication of catalepsy-like behavior. […]
# [4] = tested on: CD-1 mice, arachidonic acid induced paw edema; assay: Arachidonic acid induced paw edema model; format: in vivo, mouse; conditions: oral 5, 50 and 500 ug/kg, 90 min before arachidonic acid, paw volume 45 min after injection
# Procedure: CD-1 Mice (Female) were randomly allocated to experimental groups and allowed to acclimatise for one week. Prior to test compound administration, baseline right hind paw volume was measured under gas (isoflurane) anaesthesia using a water displacement device (plethysmometer, Stoelting). On Day 0, ultrapure AJA suspended in 2% MC or vehicle was administered at 0, 5, 50 and 500 ug/kg by oral gavage. Ninety minutes after treatment administration, the animals were given 10 microliters of a 100 mg/ml arachidonic acid solution in 5% ethanol by subcutaneous injection into the plantar aspect of the right hind paw. A control group of animals (Group 1) was administered with an equivalent volume of a 5% ethanol solution. The left hind paws were not injected. Intra-plantar injections were performed under gas anaesthesia. 45 minutes after the intra-plantar injections right hind paw volume was measured under gas anaesthesia using a plethysmometer.
# [5] = tested on: C57Bl mice, bleomycin induced skin fibrosis; assay: Bleomycin induced skin fibrosis mouse model of scleroderma; format: in vivo; conditions: for inhibition of skin fibrosis: oral gavage 2.5, 5.0 and 10 mg/kg daily, bleomycin s.c. 14 days, sacrifice day 21
# Procedure: Groups of 8 mice (6-12 week-old C57Bl) received daily s.c. injections of bleomycin (20 ug/mouse) or vehicle for 14 days, followed by one weeks of recovery. In parallel, starting day 1, ultrapure AJA suspended in 2% methylcellulose (MC) or vehicle was administered by oral gavage at 0, 2.5, 5.0 and 10 mg/kg. On day 21, mice were sacrificed. Their skin was harvested and processed for routine histology (H&E, trichrome and picrosirius red stains), immunohistology (paraffin-embedded or frozen samples), in situ hybridization, collagen (SIRCOL) assays, and RNA isolation for real-time qPCR or microarray hybridization. Skin sections were carefully characterized and quantified for dermal inflammation, dermal thickening, collagen accumulation (Trichrome), and collagen cross-linking (Sirius red) in lesional skin.
# [6] = biological target: T1, hCB2 receptor; assay: CB receptor radioligand binding assay, human CB2; parameters: expressed in transfected cells; host or cells: HEK-293T
# Procedure: Membrane preparation—HEK-293T cells were cultured according to ATCC (Manassas, Va.) guidelines and transfected with human CB1 cDNA (Genbank X54937) or CB2 cDNA (Genbank X74328), operably linked to the SV40 promoter, using Polyfect (Qiagen, Valencia, Calif.) or Fugene (Roche, Nutley, N.J.) according to manufacturer's instructions. 48 h after transfection, cells were harvested in ice cold membrane buffer (20 mM HEPES, 6 mM MgCl2, 1 mM EDTA, pH 7.2) using a cell scraper. Cells were transferred to a nitrogen cavitation chamber and a pressure of […] was applied for 30 min. The pressure was released and the cell debris was collected and centrifuged at 1000 g at 4° C. for 10 min. The supernatant was collected and the spin was repeated until the supernatant was free of precipitate. […] The membrane concentration was determined using a BioRad (Hercules, Calif.) protein assay dye reagent according to manufacturer's instructions. […]
# Membranes were incubated for 2 hr at room temperature, then filtered onto a presoaked (with 0.1% polyethylenimine for 1 to 2 hr) 96 well GF/B filterplate (Packard Bioscience, Shelton, Conn.) and washed with […] ice cold wash buffer (25 mM HEPES, 1 mM CaCl2, 5 mM MgCl2, 0.25M NaCl) using a Filtermate 196 Harvester (Packard Instruments, Downers Grove, Ill.). […] Plates were counted on a Topcount NXT (Packard, Shelton, Conn.). […]
# T1 sequence (P34972 whole entry): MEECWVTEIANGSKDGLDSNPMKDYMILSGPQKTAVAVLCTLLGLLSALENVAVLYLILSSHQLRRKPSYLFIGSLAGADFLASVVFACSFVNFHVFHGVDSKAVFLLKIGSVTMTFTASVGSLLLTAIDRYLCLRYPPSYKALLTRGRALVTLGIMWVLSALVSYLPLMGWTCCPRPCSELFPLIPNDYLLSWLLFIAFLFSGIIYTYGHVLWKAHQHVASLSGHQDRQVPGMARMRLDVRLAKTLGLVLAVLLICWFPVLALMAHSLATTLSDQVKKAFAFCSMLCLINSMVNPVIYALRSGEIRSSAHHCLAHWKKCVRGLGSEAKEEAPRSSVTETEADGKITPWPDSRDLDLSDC
smiles,measurement,setting,value
"CCCCCCC(C)(C)c1cc(O)c2c(c1)OC(C)(C)[C@@H]1CC=C(C(=O)O)C[C@@H]21 [JBT-101, (6aR,10aR)-3-(1′,1′-dimethylheptyl)-Δ8-tetrahydro-cannabinol-9-carboxylic acid]","doses required to see analgesia compared with AJA from U.S. Pat. No. 5,338,753",[1]; dose response 0.05 to 56 mg/kg oral,required much higher doses
same,antinociception in the hot plate test (% MPE),"[1]; oral 0.05-56 mg/kg, 90 min after administration, vs vehicle",None of the doses tested produced significant antinociception
same,doses at which active in the mouse hot plate assay,"[1]; oral, FIG. 15",≥ 30 mg/kg
same,EC50,"[2]; hCB2 EC50 Mean (±SEM), GTP-γ-35S turnover, mean of 4 repetitions",1020 ± 92 nM
same,EC50,"[2]; hCB2 EC50 Rep 1, GTP-γ-35S turnover, replicate 1",930 nM
same,EC50,"[2]; hCB2 EC50 Rep 2, GTP-γ-35S turnover, replicate 2",815 nM
same,EC50,"[2]; hCB2 EC50 Rep 3, GTP-γ-35S turnover, replicate 3",1230 nM
same,EC50,"[2]; hCB2 EC50 Rep 4, GTP-γ-35S turnover, replicate 4",1100 nM
same,change in rectal temperature (hypothermia),[3],None of the doses tested produced significant; also recorded: inactive
same,inhibition of paw volume / inflammation,[4],effective at doses well below the doses in which CB1 activity is observed
same,inhibition of paw volume / inflammation,[4]; listed as ultrapure AJA,effective at all doses tested
same,inhibition of skin thickening,"[5]; all oral doses, including 1 mg/kg (data not shown)",equally effective
same,inhibition of skin fibrosis,[5],effective at inhibiting skin fibrosis
same,inhibition of skin fibrosis,[5]; listed as ultrapure AJA,effective at all doses tested
same,Ki,[6],51 ± 11 nM
